Experimental data from PMC10011747, “Targeting androgen receptor and the variants by an orally bioavailable Proteolysis Targeting Chimeras compound in castration resistant prostate cancer” (eBioMedicine, 2023).

Legend:
[1] = tested on: LNCaP, CWR22Rv1 and VCaP cells; assay: alamarBlue cell viability, all three cell lines; assay type: cell-based; details: Homo sapiens, 168 h; 7 days treatment; read-out: IC50 cell viability, range in all three cell lines
Protocol: Cells were seeded in triplicate in 96-well plates 1 day prior to drug treatment for all assays. For viability test and IC50 assessment, the alamarBlue™ Cell Viability Reagent (Thermo Fisher Scientific) was added to cells 7 days after PROTAC treatment, followed by fluorescence detection as the manufacturer instructed. The IC50 was calculated by dose-inhibition regression. For proliferation monitoring, 2, 4, 6 and 8 days after PROTAC treatment (day 0), viable cells were detected by MTT Cell Proliferation Kit I (Sigma–Aldrich) according to the manufacturer's instructions. Cellular caspase activity was measured by Caspase-Glo 3/7 Assay System (Promega) 1 or 2 days after the drug treatment.

[2] = tested on: CWR22Rv1 xenograft; assay: CWR22Rv1 xenograft efficacy study; assay type: in vivo
Protocol: Immunodifficient male C.B-17 SCID mice (NOD.CB17-Prkdc^scid/NcrCrlBltw) at 4–6 weeks of age were purchased from BioLASCO Taiwan Co., Ilan, Taiwan. All mice were housed in conventional cages in the AAALAC Full Accreditation (2011) in Industrial Technology Research Institute and were allowed to acclimatize and recover from shipping-related stress for one week prior to the study. The health of the mice was monitored by daily observations. Animals were kept in rooms at temperature of 22–26 °C with 40–70% humidity, positive pressure, 60% air recirculation, ventilation rate 15–20 changes per hour, and a controlled light–dark cycle (12–12 h). The order and location of each animal cage was randomly assigned to minimize potential confounders. CWR22Rv1 cells (5 × 10^6) were suspended in 100 μL of PBS with 30% Matrigel and subcutaneously implanted into the right flank of male C.B-17 SCID mice. Tumors were measured with calipers, and tumor size was calculated as follows: tumor volume (V) = (L × S^2)/2 (L, longest diameter, mm; S, shortest diameter, mm). When mean tumor volume reached 150–200 mm^3, the mice were randomly assigned into indicated groups (n = 5–6/group) and the day of initiating treatments was assigned as day 0. In the study using intraperitoneal (IP) injection, the mice received vehicle control (NMP: Cremophor: PBS = 1:2:7 (v:v:v)), ITRI-90 (10 mg/kg, BID) or ITRI-126 (10 mg/kg, BID) for the indicated days. In the study using oral (PO) gavage, the mice received vehicle control or ITRI-90 (100 mg/kg, BID) for 21 days. Tumor size and body weight of the animals were monitored and recorded two to three times per week. Mice were sacrificed when one of the tumor reached over 1000 mm^3 in size. Tumors were collected and immediately subjected to liquid nitrogen freezing and homogenization. The homogenized tumor samples were stored at −80 °C for subsequent western blotting analysis. The drug antitumor efficacy was presented as percentages of TGI of each tested animal, calculated as follows: [1 − (final tumor volume − initial tumor volume of the treated group)/average of (final tumor volume − initial tumor volume of the vehicle group)] × 100. Body weight of each mouse was also compared to that on the first day of treatment (day 0) and expressed as a percentage of day 0 value. All data points were included for calculation and the values are presented as mean ± SEM. Statistical analysis of the differences between two drug and vehicle treated groups was determined by two-tailed Student's t test. For negative control, same procedures as described above were followed. PC3 cells (5 × 10^6) mixing with 50% matrigel were subcutaneously implanted into both flanks of 8 male C.B-17 SCID mice, followed by random assignment for oral administration of vehicle control or ITRI-90 drug (100 mg/kg, BID) treatment (n = 4/group).

[3] = target: T1, AR NTD (221–320) (Homo sapiens, UniProt P10275); assay: Affinity selection mass spectrometer (ASMS) binding assay; details: 100 nM compound with 100 nM GST-AR-NTD, 1 h 37 °C; percentage of input compound recovered
T1 construct: GST tagged AR-NTD protein (221–320) (Abcam ab157902); purchased Abcam ab157902; host or cells: wheat germ (datasheet)
T1 sequence (P10275 221-320): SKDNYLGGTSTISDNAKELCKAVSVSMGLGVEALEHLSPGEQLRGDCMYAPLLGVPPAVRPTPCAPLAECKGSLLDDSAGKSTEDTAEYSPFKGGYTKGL
Protocol: Affinity selection mass spectrometer (ASMS)[40] binding assay was employed for the screen and relative binding affinity assessment of AR NTD binding compounds. Briefly, GST tagged AR-NTD protein (221–320) (Abcam ab157902) at final concentration of 100 nM was incubated with 100 nM of individual candidate compounds in PBS for 1 h at 37 °C. The protein-compound mixture was filtered through 10K MWCO pore sized Nanosep centrifugal column (PALL Life science) with thorough wash steps to separate protein-bound and unbound compounds. The protein-bound compounds were subsequently extracted and analyzed by ABSCIEX 4000 QTRAP LC-ESI MS/MS (AB Sciex, Framingham, MA) coupled to an Agilent 1200 HPLC system. A Waters S XBridge RP18, 3.5 μm, 4.6 × 20 mm column was used as the stationary phase (Waters Corporation, Milford, MA, USA). Gradient elution was carried out using water with 0.1% formic acid (solvent A) and acetonitrile with 0.1% formic acid (solvent B) as a mobile phase. Positive ion polarity scanning was used in electrospray (ESI) mass-triggered fraction collection to monitor the target mass. Quantification of protein-bound compounds was determined against calibration curves established with drug standards. For relative binding affinity assessment, same procedure and condition was carried out for each compound without target protein incubated in the reaction as background controls. Relative binding affinity was calculated as percentage of input compound quantity after background value subtraction.

[4] = In vitro stability in plasma; assay type: in vitro ADME; details: mouse, BALB/c mice plasma, 37 °C, read-out: Plasma stability T1/2
Protocol: The in vitro stability of the PROTAC compounds was performed in BALB/C (BALB/cAnNCrlBltw) mice plasma. The reactions were initiated by adding 10 μM PROTAC compounds to 0.5 mL of pre-warmed plasma solution. The assays were performed in Thermomixer at 37 °C. During the incubation, 20 μL samples were taken at 0, 30, 60, 120, and 240 min time points, and added to 120 μL of acetonitrile to deproteinize the plasma. After 10 min of centrifugation at 14,000 rpm, the supernatants were collected for subsequent HPLC-UV analysis (Waters 1525 Binary and 2707 Autosampler).

Compound	IC50 [1] [nM]	toxicity monitored by animal body weight ([2]; IP 10 mg/kg twice daily)	tumor growth inhibition (TGI) ([2]; IP 10 mg/kg twice daily, day 12, SCID mice, no hormone manipulation) [%]	toxicity monitored by animal body weight ([2]; PO 100 mg/kg twice daily, 21 days)	tumor growth inhibition (TGI) ([2]; PO 100 mg/kg twice daily, day 21, SCID mice, no hormone ablation) [%]	AR-FL and AR-Vs protein levels in tumors ([2]; PO 100 mg/kg twice daily, final time point, western blot)	ASMS relative binding (%) [3] [%]	half-life at 10 μM [4] [h]	tumor growth inhibition (TGI) ([2]; IP 10 mg/kg twice daily, day 14, SCID mice, no hormone manipulation) [%]	toxicity monitored by animal body weight ([2]; mouse, in vivo, ip, 10 mg/kg)
Cc1ncsc1-c1ccc(CNC(=O)[C@@H]2C[C@H](O)CN2C(=O)[C@@H](NC(=O)COCCCCOc2ccc(C3CCN(C4=Nn5c(nnc5C(F)(F)F)CC4)CC3)cc2)C(C)(C)C)cc1 [ITRI-90, (2S,4S)-1-((S)-3,3-dimethyl-2-(2-(4-(4-(1-(3-(trifluoromethyl)-7,8-dihydro-[1,2,4]triazolo[4,3-b]pyridazin-6-yl)piperidin-4-yl)phenoxy)butoxy)acetamido)butanoyl)-4-hydroxy-N-(4-(4-methylthiazol-5-yl)benzyl)pyrrolidine-2-carboxamide]	3000 to 6000	without obvious toxicities	76.64 ± 11.1	without obvious toxicity	71.73 ± 6.42	reduced	15.9	> 4	–	–
Cc1ncsc1-c1ccc(CNC(=O)[C@@H]2C[C@H](O)CN2C(=O)[C@@H](NC(=O)COCCCCCCOc2ccc(C3CCN(C4=Nn5c(nnc5C(F)(F)F)CC4)CC3)cc2)C(C)(C)C)cc1 [ITRI-125, (2S,4S)-1-((S)-3,3-dimethyl-2-(2-(6-(4-(1-(3-(trifluoromethyl)-7,8-dihydro-[1,2,4]triazolo[4,3-b]pyridazin-6-yl)piperidin-4-yl)phenoxy)hexyloxy)acetamido)butanoyl)-4-hydroxy-N-(4-(4-methylthiazol-5-yl)benzyl)pyrrolidine-2-carboxamide]	3000 to 6000	–	–	–	–	–	13.6	> 4	–	–
O=C1CCC(N2Cc3c(NC(=O)COCCCCOc4ccc(C5CCN(C6=Nn7c(nnc7C(F)(F)F)CC6)CC5)cc4)cccc3C2=O)C(=O)N1 (stereo not drawn) [ITRI-126, N-(2-(2,6-dioxopiperidin-3-yl)-1-oxoisoindolin-4-yl)-2-(4-(4-(1-(3-(trifluoromethyl)-7,8-dihydro-[1,2,4]triazolo[4,3-b]pyridazin-6-yl)piperidin-4-yl)phenoxy)butoxy)acetamide]	70 to 400	–	–	–	–	–	20	–	49.8 ± 11.1	without obvious toxicities
